Data as given in patent publication US8492087B2, “Method of judging risk for onset of drug-induced granulocytopenia” (Otsuka Pharmaceutical Co., Ltd., priority 2003, dated 2013).

Test system: human IRS-2 gene
Experiment: Association analysis of human IRS-2 gene polymorphisms and granulocytopenia induced by vesnarinone administration
Assay type: in vivo
Conditions: subjects who had received vesnarinone
Text: In order to find genetic polymorphisms in relation to granulocytopenia attributed to drug administration, there were employed subjects who had received vesnarinone (3,4-dihydro-6-[4-(3,4-dimethoxybenzoy1)-1-piperaziny1]-2(1H)-quinoline).
Among subjects who had received vesnarinone, had orally agreed to cooperate with investigation of the cause for vesnarinone-induced granulocytopenia between May 1991 and October 1996, and had accepted to provide a blood sample, there were employed 84 subjects (male/female ratio=1.21:1) who had again agreed in writing to cooperate with genetic analysis according to ethical guidelines between July 2001 and December 2001. Genomic DNA was extracted from a blood sample (or a cell sample derived therefrom) of each of the subjects who had again agreed described above. through a common method, and was employed for the below-described tests.
Among the subjects, subjects having leukocytes or neutrophils which were decreased to half or less following vesnarinone administration, and having the number of leukocytes of 2,000/mm^3 or less, or the number of neutrophils of 1,000/mm^3 or less were classified as “subjects with granulocytopenia”.
Each of these groups was further classified into two groups according to sex, to thereby become four subgroups; i.e., a group of 13 male with granulocytopenia (group A), a group of 17 female with granulocytopenia (group B), a group of 33 male without granulocytopenia (group C), and a group of 21 female without granulocytopenia (group D).
The allele frequencies in the group of subjects with granulocytopenia were compared to that of subjects without granulocytopenia by the contingency χ square test. The odds ratio was estimated through the Brown method (Brown, C. C., Am. J. Epidemiol., 113: 474-480 (1981)). The 95% confidence interval of odds ratio was calculated through the Woolf method.
In order to determine the genotype distribution, all polymorphisms identified by the discovery above were analyzed in the all subjects described in Example 1 by amplifying the regions containing the polymorphisms with primer sets and sequencing the PCR products under the condition described above.
In addition to the statistical methods employed in Example 1, a pair-wise linkage disequilibrium coefficient (D′=D/Dmax or D/Dmin) was calculated by use of the method by Thompson, et al. (Thompson, E. A., et al., Am. J. Hum. Genet. 42: 113-124 (1988))

Q: Which results are given for `COc1ccc(C(=O)N2CCN(c3ccc4c(c3)CCC(=O)N4)CC2)cc1OC` [vesnarinone, 3,4-dihydro-6-[4-(3,4-dimethoxybenzoy1)-1-piperaziny1]-2(1H)-quinoline]?
A: subjects with agranulocytosis N (%) (IRS-2 A15870G genotype AA, total 27): 10 (37.0) N (%); subjects without agranulocytosis N (%) (IRS-2 A15870G genotype AA, total 49): 36 (73.5) N (%); subjects with agranulocytosis N (%) (IRS-2 A15870G genotype AG + GG, total 27): 17 (63.0) N (%); subjects without agranulocytosis N (%) (IRS-2 A15870G genotype AG + GG, total 49): 13 (26.5) N (%); subjects with agranulocytosis N (%) (IRS-2 A29793G genotype AA, total 30): 11 (36.7) N (%); subjects without agranulocytosis N (%) (IRS-2 A29793G genotype AA, total 53): 39 (73.6) N (%); subjects with agranulocytosis N (%) (IRS-2 A29793G genotype AG + GG, total 30): 19 (63.3) N (%); subjects without agranulocytosis N (%) (IRS-2 A29793G genotype AG + GG, total 53): 14 (26.4) N (%); subjects with agranulocytosis N (%) (IRS-2 A-1164C genotype AA, total 30): 8 (26.7) N (%); subjects without agranulocytosis N (%) (IRS-2 A-1164C genotype AA, total 49): 29 (59.2) N (%); subjects with agranulocytosis N (%) (IRS-2 A-1164C genotype AC + CC, total 30): 22 (73.3) N (%); subjects without agranulocytosis N (%) (IRS-2 A-1164C genotype AC + CC, total 49): 20 (40.8) N (%); subjects with agranulocytosis N (%) (IRS-2 AT-2510del genotype AT, total 29): 7 (24.1) N (%); subjects without agranulocytosis N (%) (IRS-2 AT-2510del genotype AT, total 49): 28 (57.1) N (%); subjects with agranulocytosis N (%) (IRS-2 AT-2510del genotype ATdel + del, total 29): 22 (75.9) N (%); subjects without agranulocytosis N (%) (IRS-2 AT-2510del genotype ATdel + del, total 49): 21 (42.9) N (%); subjects with agranulocytosis N (%) (IRS-2 C31532del genotype CC, total 27): 9 (33.3) N (%); subjects without agranulocytosis N (%) (IRS-2 C31532del genotype CC, total 48): 34 (70.8) N (%); subjects with agranulocytosis N (%) (IRS-2 C31532del genotype Cdel + del, total 27): 18 (66.7) N (%); subjects without agranulocytosis N (%) (IRS-2 C31532del genotype Cdel + del, total 48): 14 (29.2) N (%); subjects with agranulocytosis N (%) (IRS-2 C-4587A genotype CA + AA, total 28): 21 (75.0) N (%); subjects without agranulocytosis N (%) (IRS-2 C-4587A genotype CA + AA, total 49): 20 (40.8) N (%); subjects with agranulocytosis N (%) (IRS-2 C-4587A genotype CC, total 28): 7 (25.0) N (%); subjects without agranulocytosis N (%) (IRS-2 C-4587A genotype CC, total 49): 29 (59.2) N (%)
